Legend:
Test in all cases: relative viability (nuclei count vs DMSO), 5 days (fraction); higher = more cells survive
VX-11e + Navitoclax = compound: CC1=CN=C(N=C1C2=CNC(=C2)C(=O)N[C@H](CO)C3=CC(=CC=C3)Cl)NC4=C(C=C(C=C4)F)Cl [VX-11e] + CC1(C)CCC(c2ccc(Cl)cc2)=C(CN2CCN(c3ccc(C(=O)NS(=O)(=O)c4ccc(N[C@H](CCN5CCOCC5)CSc5ccccc5)c(S(=O)(=O)C(F)(F)F)c4)cc3)CC2)C1 [Navitoclax] (partner 0.5 µM)
Summary of the method: (§1)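 A single step with final 0.05% Triton X-100, 1% formaldehyde and 1 ug/ml Hoechst fixed the cells and stained nuclei 5 days after treatment. Lung cancer cell lines in 1536-well plates had been treated by pin tool the day after seeding with one drug alone or a fixed anchor-drug dose plus five library-drug doses (not always all listed) in √10 steps, and nuclei were counted on 4× images. Relative viability is the ratio of nuclei in treated wells to nuclei in vehicle wells, taken as the median of duplicate plates.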

VX-11e + Linsitinib = compound: CC1=CN=C(N=C1C2=CNC(=C2)C(=O)N[C@H](CO)C3=CC(=CC=C3)Cl)NC4=C(C=C(C=C4)F)Cl [VX-11e] + C[C@]1(O)C[C@@H](c2nc(-c3ccc4ccc(-c5ccccc5)nc4c3)c3c(N)nccn32)C1 [Linsitinib] (partner 1 µM)
Summary of the method: as §1

VX-11e + Alpelisib = compound: CC1=CN=C(N=C1C2=CNC(=C2)C(=O)N[C@H](CO)C3=CC(=CC=C3)Cl)NC4=C(C=C(C=C4)F)Cl [VX-11e] + Cc1nc(NC(=O)N2CCC[C@H]2C(N)=O)sc1-c1ccnc(C(C)(C)C(F)(F)F)c1 [Alpelisib] (partner 2 µM)
Summary of the method: as §1

VX-11e + Vorinostat = compound: CC1=CN=C(N=C1C2=CNC(=C2)C(=O)N[C@H](CO)C3=CC(=CC=C3)Cl)NC4=C(C=C(C=C4)F)Cl [VX-11e] + O=C(CCCCCCC(=O)Nc1ccccc1)NO [Vorinostat] (partner 1 µM)
Summary of the method: as §1

| Cell Line | relative viability (VX-11e + Navitoclax; first compound 0.04 µM) | relative viability (VX-11e + Navitoclax; first compound 0.1265 µM) | relative viability (VX-11e + Navitoclax; first compound 0.4 µM) | relative viability (VX-11e + Navitoclax; first compound 1.265 µM) | relative viability (VX-11e + Navitoclax; first compound 4 µM) | relative viability (VX-11e + Linsitinib; first compound 0.04 µM) | relative viability (VX-11e + Linsitinib; first compound 0.1265 µM) | relative viability (VX-11e + Linsitinib; first compound 0.4 µM) | relative viability (VX-11e + Linsitinib; first compound 1.265 µM) | relative viability (VX-11e + Linsitinib; first compound 4 µM) | relative viability (VX-11e + Alpelisib; first compound 0.04 µM) | relative viability (VX-11e + Alpelisib; first compound 0.1265 µM) | relative viability (VX-11e + Alpelisib; first compound 0.4 µM) | relative viability (VX-11e + Alpelisib; first compound 1.265 µM) | relative viability (VX-11e + Alpelisib; first compound 4 µM) | relative viability (VX-11e + Vorinostat; first compound 0.04 µM) | relative viability (VX-11e + Vorinostat; first compound 0.1265 µM) | relative viability (VX-11e + Vorinostat; first compound 0.4 µM) | relative viability (VX-11e + Vorinostat; first compound 1.265 µM) | relative viability (VX-11e + Vorinostat; first compound 4 µM) |
| --- | --- | --- | --- | --- | --- | --- | --- | --- | --- | --- | --- | --- | --- | --- | --- | --- | --- | --- | --- | --- |
| PC-14 | 1.05 | 1.04 | 1.09 | 0.978 | 0.727 | 1 | 0.866 | 0.953 | 0.961 | 0.665 | 1.13 | 0.916 | 0.676 | 0.918 | 0.459 | 0.747 | 0.692 | 0.355 | 0.58 | 0.302 |
| LCLC-97TM1 | 0.492 | 0.463 | – | 0.408 | 0.157 | 0.158 | 0.172 | – | 0.203 | 0.116 | 0.285 | 0.253 | – | 0.192 | 0.12 | 0.765 | 0.718 | 0.758 | – | 0.149 |
| LU99A | 0.82 | 0.925 | 0.651 | 0.335 | 0.161 | 0.539 | 0.456 | 0.623 | 0.42 | 0.207 | 0.423 | 0.38 | 0.574 | 0.209 | 0.175 | 0.468 | 0.469 | 0.487 | 0.274 | 0.226 |
| NCI-H1651 | 1.06 | 1.1 | 0.968 | 0.893 | 0.939 | 1.05 | 1.02 | 0.797 | 0.927 | 0.758 | 0.955 | 0.882 | 1 | 0.735 | 0.705 | 0.526 | 0.557 | 0.55 | 0.517 | 0.569 |
| NCI-H460 | 1.37 | 1.16 | 1.13 | 0.542 | 0.0727 | 1.17 | 0.849 | 0.674 | 0.0925 | 0.017 | 0.49 | 0.359 | 0.39 | 0.0408 | 0.0113 | 0.855 | 0.693 | 0.692 | 0.522 | 0.0489 |
| UMC-11 | 0.288 | 0.263 | 0.295 | 0.324 | 0.327 | 0.935 | 0.937 | 1 | 1 | 0.989 | 0.921 | 1 | 0.962 | 0.97 | 0.973 | 0.374 | 0.337 | 0.447 | 0.297 | 0.315 |
| NCI-H1666 | 0.987 | 1.1 | 0.848 | 0.51 | 0.368 | 0.846 | 0.81 | 0.594 | 0.493 | 0.42 | 0.706 | 1.01 | 0.8 | 0.461 | 0.333 | 1.08 | 0.953 | – | 0.992 | 0.798 |
| NCI-H23 | 1 | 0.859 | 0.467 | 0.459 | 0.243 | 0.48 | 0.52 | 0.37 | 0.378 | 0.271 | 0.575 | 0.53 | 0.435 | 0.384 | 0.242 | 0.562 | 0.581 | 0.174 | 0.148 | 0.182 |

— the supplement of paper PMC10307832
